Experimental data published in US20220226270A1, “VERY-LONG-CHAIN POLYUNSATURATED FATTY ACIDS, ELOVANOID HYDROXYLATED DERIVATIVES, AND METHODS OF USE” (Board of Supervisors of Louisiana State University and …, priority 2019, published 2022).

Columns and labels:
primary human RPE cells = assay: UOS-induced cell death in primary human RPE cells (Hoechst staining); format: cell-based; conditions: UOS with H2O2 (800 μM), 16 h; VLC-PUFAs 3 μM each, NPD1 200 nM; UOS alone 50% cell death
Experimental: Exposure of RPE cells to UOS and VLC-PUFA: For cell viability assay experiments hRPE cells were treated concomitantly with NPD1 (200 nM), 32-6, 34-6 (3 μM each) fatty acids or both 32-6 and 34-6 simultaneously. The hRPE medium was supplemented with 3 μM of 32-6 and 34-6 for the entire duration of the experiment. 15 lox-1 inhibitor (10 μM) was added to the cells 1 hour prior the OS induction and kept throughout the experiment. Cells were fixed with 4% PFA and stained with Hoescht.
(§1) To assess cell death, hRPE and ARPE-19 cells were fixed with methanol for 15 mins, washed with 1× PBS then loaded with 2 μM Hoechst dissolved in a Locke's solution (Promega) and incubated for another 15 mins before imaging. Cells were then viewed by using a Zeiss LSM 510 confocal microscope under UV fluorescence. Images were recorded and cell apoptosis was assessed by using an automated unbiased method.
To test the efficacy of 32:6n3 and 34:6n3 VLC-PUFAs to modulate human RPE cell homeostasis and survival rates, human RPE cells undergoing UOS were incubated with both VLC-PUFAs (3 μM each) and NPD1 (200 nM) 16 h. The addition of H2O2 (800 μM) induced apoptosis (50% cell death).
hRPE cells, formerly serum deprived for 12 h, were incubated with the 15 lipoxygenase 1 (15-LOX-1) inhibitor (PD146176) (10 μM for 1 h), then bathed with 600 μM H2O2/TNF-α in conjunction with a mixture of 32:6n3 and 34:6n3 (3 μM each) for 16 h. The 15-LOX-1 inhibitor sensitizes cells; therefore, a lower concentration of H2O2 than in the cytoprotection experiment was used.

ARPE-19 cells under UOS = assay: Western blot of pro-survival and pro-apoptotic proteins in ARPE-19 cells under UOS; format: cell-based, human; conditions: for Bax protein / Bid protein / Bim protein: Western blot, UOS; for Prohibitin (type-1) expression (ELV): sodium salts and methyl ester forms, concentration-dependent, 100-200 nM; for effect of 15-LOX-1 inhibitor on VLC-PUFA-induced Iduna expression: FIG. 7D
Experimental: (§2) ARPE19 cells at 75-80% confluence (72 h growth in DMEM/F12+10% FBS) in 6-well plates were serum-starved for 8 h before exposure. The serum-starved cells were treated with TNF-α (Sigma-Aldrich, St. Louis, Mo.) (10 ng/ml) and H2O2 (600 μM) to induce oxidative stress and challenged with increasing concentrations (50-500 nM) of VLC-PUFA (C32:6n3 and C34:6n3) simultaneously with oxidative stress for 16 h (apoptosis) and 6 h (Western-blot) before detection of apoptosis and harvesting for protein analysis. In some experiments, DHA at a concentration of 100 nM and 15-LOX-1 inhibitor PD146176 at a concentration of 1 μM was added to treat the RPE cells under stress. Cell extracts were made and protein concentrations adjusted by Bio-Rad (Hercules, Calif.) protein reagent and used for Western blot analysis.
Analysis of Proteins: Bcl-2 family proteins, SIRT1 and Proinhibitin (type-1), and Iduna proteins were analyze by Western blot analysis. In brief, 20-25 μg equivalents of each cell extracts were subject to electrophoresis on a 4-12% gel (Promega) at 125 V for 2 h. The proteins were transferred to nitrocellulose membrane by I-blot transfer apparatus. The membranes were subjected to treatment with primary antibodies specific for Bcl-2, Bcl-xL, Bax, Bid, Bim, SIRT1 and Prohibitin (type-1) (Santa Cruz Biotechnology) and Iduna antibody (Neuro-Mab Lab, UCLA, Los Angeles, Calif.) overnight at 4° C. and probed for 45 mins with secondary antibody, goat anti-mouse Ig:horseradish peroxidase, and horseradish peroxidase-conjugated anti-biotin antibody, and then proteins were evaluated by using an ECL kit (Amersham).

[1] = tested on: cerebral cortical mixed neuronal cells; assay: NMDA excitotoxicity in cerebral cortical mixed neuronal cultures; format: cell-based, rat; conditions: for NMDA-induced neuronal death: NMDA 25, 50 or 100 μM for 12 h, ELV (Na or Me) 200 nM or 500 nM added simultaneously
Excerpt: Primary cultures of cortical neurons: Primary cultures of cortical and hippocampal neurons were harvested from 18-day-old embryos (E18) taken from timed-pregnant, two-month-old Sprague-Dawley (SD) rats (Charles River Lab., Wilmington, Mass.). Briefly, timed-pregnant SD rats were euthanized and embryos were collected in sterile conditions. Embryonic brains were dissected out by forceps on ice and placed in a petri dish containing ice-cold Hank's Balanced Salt Solution (HBSS) (GIBCO). Meninges were removed under a dissecting microscope and cortical tissues were chopped into small pieces with micro-spring scissors. These tissues were transferred to 15 ml tubes containing trypsin-EDTA (0.025% in HBSS) and DNase I. The tubes were incubated in 37° C. chamber for 15 mins and were agitated every 5 mins. After stopping the trypsinization with 5 ml 10% FBS, these tissues were triturated 15 times with a fire polished Pasteur pipet. Cell clumps were left to settle for 2 mins and the supernatant was transferred to a 15 ml Eppendorf tube. The supernatant was filtered through a 70 μm pore-sized filter (Corning cell strainer) and centrifuged for 5 mins at 1000 rpm. The cells were then resuspended in Neurobasal medium (GIBCO) containing 2% B27 (GIBCO) and 2% N2 (GIBCO) supplements, along with 0.5 mM glutamine, 50 U/ml penicillin/streptomycin.
Cells were counted using a Neubauer hemocytometer. 1×10^6 cells were seeded on poly-D-lysine-coated 12 well cell culture dish (CORNING) and cultured in incubator (37° C., 5% CO2). Culture medium was first replaced after 24 h, then half of the medium was replaced with fresh medium every three days. As a result, approximately, 90% purity of neurons was obtained as determined by class-III-β tubulin, GFAP and Hoechst 33258 staining. Cells were maintained in culture for about 2 weeks until they were exposed to uncompensated oxidative stress, OGD, or NMDA excitotoxicity.
After 90 mins of OGD exposure, cells were returned to the original medium (Neurobasal medium (GIBCO) containing 2% B27 (GIBCO) and 2% N2 (GIBCO) supplements, along with 0.5 mM glutamine, 50 U/ml penicillin/streptomycin) and placed in a normoxic chamber (37° C., 5% CO2) for 2 h. Then the medium was changed with medium containing either ELV-N32 or ELV-N34 [500 nM] and maintained in a normoxic chamber (37° C., 5% CO2) for 12 h, after which cells were sampled and assayed for cell viability using different methods as previously described (25-28). Cerebral cortical mixed neuronal cells or hippocampal cells in culture were exposed to either NMDA or uncompensated oxidative stress (UOS) for 12 h by addition of either NMDA (25 μM, 50 μM, or 100 μM) concentration or by the addition of TNFα (10 ng/mL) and H2O2 (50 μM, 100 μM, or 200 μM). Cell viability and neuroprotection in the presence of ELV-N32, ELV-N34, 32:6, or 34:6 were assayed after 12 h.
Hoechst staining and unbiased image analysis: Cells were washed with 1× Dulbecco's Phosphate Buffered Saline (DPBS) containing no calcium or magnesium (GIBCO) and fixed for 10 mins using ice-cold 4% paraformaldehyde (PFA) followed by 15 mins incubation in 100% methanol. Cells were washed with 1× Phosphate Buffered Saline (PBS) pH 7.4 (GIBCO) and incubated in PBS containing 20 μM Hoechst 33258 (Molecular Probes) for 20 mins. Cells were then washed 3 times with 1× PBS and stored in 1× PBS at 4° C. until they were imaged for microscopy.
One 4×4 tile mosaic was acquired from the center of each well using a Zeiss 510 Meta laser confocal microscope and LSM 510 Meta software. Images were imported into image analysis software ImageJ (National Institutes of Health, Bethesda, Md.) and batch processed using custom macros. An Otsu auto threshold was applied to each image of Hoechst-stained nuclei, and the area of each detected object was recorded. Objects with areas <10 μm^2 were excluded from analysis. To estimate percentage non-pyknotic nuclei, a size cutoff value was chosen above which objects were assumed to be non-pyknotic. […]

[2] = tested on: mice sub-retinally injected with OAβ; assay: Oligomeric Aβ (OAβ)-induced RPE senescence and retinal degeneration, sub-retinal injection; format: in vivo, mouse; conditions: 200 ng co-injected with 10 μM OAβ, 2 μl sub-retinal
Excerpt: As shown in FIGS. 14A-14C, elovanoids (ELV) counteract AR peptide-induced retinal pigment epithelial cell senescence progression. Aβ42, an end product of the amyloidogenic pathway, is a component of drusen in age-related macular degeneration (AMD), and of senile plaques in Alzheimer's disease (AD). To mimic the effect of OAβ in vivo, 6-month-old mice were used and sub-retinally injected with OAβ alone, OAβ+ELVs and ELVs alone. The no injection mice were used as negative control while the PBS injected mice were used as the sham. The injection volume was 2 μl containing of PBS, 10 μM of OAβ, 10 μM of OAβ+200 ng ELV-32, 200 ng ELV-32 alone, 10 μM of OAβ+200 ng ELV-34 or 200 ng ELV-34 alone. At day 3 after injection, mRNA from eyecup was isolated and analyzed the gene expression using q-PCR. Then, at day 7, the mice were subjected to Optical Coherence Tomography (OCT) analysis and then the eyes were enucleated and processed for histology, whole mount RPE staining, and western blotting (WB). OCT and histology uncovers that in OAβ induced retinal degeneration, the thickness of retina was thinner in OAβ injected group when compared to the controls as well as ELVs treatment groups.

ARPE-19 cells = assay: UOS-induced apoptosis in ARPE-19 cells (Hoechst-positive pyknotic cells); format: cell-based, human; conditions: inhibitor 1 μM, RPE cells undergoing UOS
Experimental: as §2, §1

Row | Compound | Bax protein (ARPE-19 cells under UOS) | Bid protein (ARPE-19 cells under UOS) | Bim protein (ARPE-19 cells under UOS) | Prohibitin (type-1) expression (ELV) (ARPE-19 cells under UOS) | NMDA-induced neuronal death [1] | protection of RPE and retina from OAβ induced senescence [2] | other results
1 | CC/C=C\C[C@H](O)\C=C/C=C/C=C/[C@H](O)C/C=C\C/C=C\CCC(=O)O [NPD1, 10R,17S-dihydroxy-docosa-4Z,7Z,11E,13E,15Z,19Z-hexaenoic acid, reference compound] | – | – | – | – | – | – | cell death (apoptosis) (primary human RPE cells): 11%
2 | CC/C=C\C[C@H](O)\C=C/C=C/C=C/[C@H](O)C/C=C\C/C=C\CCCCCCCCCCCCC(=O)O [ELV-N32, (14Z,17Z,20R,21E,23E,25Z,27S,29Z)-20,27-dihydroxydo-triaconta-14,17,21,23,25,29-hexaenoic acid] | decreased | decreased | decreased | upregulated | compensated for | protect RPE and retina | –
3 | c1ccc2c(c1)SCc1c-2[nH]c2ccccc12 [PD146176, reference compound] | – | – | – | – | – | – | effect of 15-LOX-1 inhibitor on ELV-mediated inhibition of apoptosis (ARPE-19 cells): compensate for ELV-mediated inhibition of apoptosis; SIRT1 expression with VLC-PUFA in the presence of 15-LOX-1 inhibitor (ARPE-19 cells under UOS; FIG. 7C): augmented; effect of 15-LOX-1 inhibitor on VLC-PUFA-induced Iduna expression (ARPE-19 cells under UOS): attenuates; effect of 15-LOX-1 inhibitor on VLC-PUFA-induced Iduna expression (ARPE-19 cells under UOS; listed as 15-LOX-1 inhibitor): unaffected; effect of 15-LOX-1 inhibitor on ELV-induced protein upregulation (Iduna) (ARPE-19 cells under UOS; inhibitor 1 μM): blocked these effects
4 | CC/C=C\C[C@H](O)\C=C/C=C/C=C/[C@H](O)C/C=C\C/C=C\CCCCCCCCCCCCCCC(=O)O [ELV-N34, (16Z,19Z,22R,23E,25E,27Z, 29S,31Z)-22,29-dihydroxytetra-triaconta-16,19,23,25,27,31-hexaenoic acid] | decreased | decreased | decreased | upregulated | compensated for | protect RPE and retina | –
5 | MK801 maleate [reference compound] | – | – | – | – | – | – | NMDA excitotoxicity ([1]; 10 μM antagonist): overcome
